Experimental findings from ChEMBL document CHEMBL6092137, “Synergistic immune augmentation enabled by covalently conjugating TLR4 and NOD2 agonists” (Eur J Med Chem, 2024) are described below.

Active and inactive are the calls of the source. The calls are words filed in the database; no cut-off is given here.

The nature of data set [1]: Induction of mouse RAW264.7 cell maturation assessed as fold increase in CD80 positive cells incubated for 18 hrs in the presence of muramyl dipeptide by staining based flow cytometric analysis relative to muramyl dipeptide. It counts as functional. (In general: Flow cytometry measures light scatter and fluorescence of single cells or particles in a stream.)
Data set [2] can be described thus: Induction of mouse BMDC cell maturation assessed as change in CD86 positive cells incubated for 18 hrs in the presence of muramyl dipeptide by staining based flow cytometric analysis relative to control. It is filed as functional.
Data set [3] deals with T-cell. Kind of data set: Immunostimulatory activity in mouse spleen T-lymphocytes assessed as fold increase in proportion of TNF-alpha and IFN-gamma double-positive secreting CD4+ cells and measured on day 42 in the presence of muramyl dipeptide by staining based flow cytometric analysis relative to RC529. It counts as functional. The settings on record: time 42 day.
Data set [4] is described as follows: Induction of mouse RAW264.7 cell maturation assessed as change in CD80 positive cells incubated for 18 hrs by staining based flow cytometric analysis relative to control. It is filed as functional.
A short description of data set [5]: Induction of mouse RAW264.7 cell maturation assessed as change in CD86 positive cells incubated for 18 hrs by staining based flow cytometric analysis relative to control. It is filed as functional.
A short description of data set [6]: Induction of mouse RAW264.7 cell maturation assessed as change in CD86 positive cells incubated for 18 hrs in the presence of muramyl dipeptide by staining based flow cytometric analysis relative to control. It is filed as functional.
The nature of data set [7]: Induction of mouse RAW264.7 cell maturation assessed as change in CD80 positive cells incubated for 18 hrs in the presence of muramyl dipeptide by staining based flow cytometric analysis relative to control. It is filed as functional.
Data set [8] in a line: Induction of mouse BMDC cell maturation assessed as change in CD80 positive cells incubated for 18 hrs by staining based flow cytometric analysis relative to control. It counts as functional.
A short description of data set [9]: Induction of mouse RAW264.7 cell maturation assessed as fold increase in CD80 positive cells incubated for 18 hrs in the presence of muramyl dipeptide by staining based flow cytometric analysis relative to RC529. It is filed as functional.
The nature of data set [10]: Induction of mouse BMDC cell maturation assessed as change in CD86 positive cells incubated for 18 hrs by staining based flow cytometric analysis relative to control. It counts as functional.
Data set [11] deals with Mus musculus. The data set can be described thus: Induction of innate immunity in BALB/c mouse assessed as fold increase in IL-6 level in serum at 16.12 ug, ip measured after 2 hrs in presence of muramyl dipeptide by ELISA relative to RC529. It counts as functional. The settings on record: dose 16.12 µg.
Data set [12] relates to Mus musculus. Kind of data set: Induction of innate immunity in BALB/c mouse assessed as fold increase in IL-6 level in serum at 5.36 ug, ip measured after 2 hrs in presence of muramyl dipeptide by ELISA relative to muramyl dipeptide. The settings on record: dose 5.36 µg. It is filed as functional. For orientation: In an ELISA, binding on a coated surface is turned into a signal by an enzyme label.

The test system of data set [13] is BMDC. Kind of data set: Immunostimulatory activity in C57BL/6 mouse BMDC cells assessed as increase in IL-6 level at 9.3 uM incubated for 20 hrs in presence of TAK242 inhibitor by ELISA. It counts as functional, cell-based.
The species named for data set [14] is Mus musculus. The data set can be described thus: Activation of adaptive immune response in ovalbumin immunized mouse model assessed as fold increase in IgG titers incubated for 1 hrs in presence of muramyl dipeptide and measured on day 42 relative to muramyl dipeptide. It is filed as functional.
Data set [15] relates to Mus musculus. Kind of data set: Induction of innate immunity in BALB/c mouse assessed as fold increase in IL-6 level in serum at 16.12 ug, ip in liposome formulation measured after 2 hrs by ELISA relative to RC529-NH2. It counts as functional. The settings on record: dose 16.12 µg.
The species entered for data set [16] is Mus musculus. The data set can be described thus: Activation of adaptive immune response in ovalbumin immunized mouse model assessed as fold increase in IgG titers incubated for 1 hrs in presence of muramyl dipeptide and measured on day 42 relative to RC529. It counts as functional.
Data set [17] relates to T-cell. Kind of data set: Immunostimulatory activity in mouse spleen T-lymphocytes assessed as fold increase in proportion of TNF-alpha and IFN-gamma double-positive secreting CD4+ cells and measured on day 42 in the presence of muramyl dipeptide by staining based flow cytometric analysis relative to muramyl dipeptide. It counts as functional. The settings on record: time 42 day.

The nature of data set [18]: Induction of mouse BMDC cell maturation assessed as change in CD80 positive cells incubated for 18 hrs in the presence of muramyl dipeptide by staining based flow cytometric analysis relative to control. It is filed as functional.
A further data set deals with THP-1. The data set can be described thus: Cytotoxicity against human THP-1 cells assessed as reduction in cell viability by MTT assay. It is filed as toxicity, cell-based. (Tetrazolium dyes change colour on reduction, which living cells bring about.)
Data set [19] deals with BMDC. Kind of data set: Immunostimulatory activity in C57BL/6 mouse BMDC cells assessed as increase in IL-6 level at 9.3 uM incubated for 20 hrs in presence of GSK717 inhibitor by ELISA. It is filed as functional, cell-based.
Data set [20] is described as follows: Induction of mouse RAW264.7 cell maturation assessed as fold increase in CD80 positive cells incubated for 18 hrs in the presence of muramyl dipeptide by staining based flow cytometric analysis relative to RC529-NH2. It is filed as functional.

Take `CCCCCCCCCCCCCC(=O)O[C@H](CCCCCCCCCCC)CC(=O)NCCO[C@@H]1O[C@H](CO)[C@@H](OP(=O)(O)O)[C@H](OC(=O)C[C@@H](CCCCCCCCCCC)OC(=O)CCCCCCCCCCCCC)[C@H]1NC(=O)C[C@@H](CCCCCCCCCCC)OC(=O)CCCCCCCCCCCCC.CCN(CC)CC`: the “fold change (FC)” value in data set [1] is listed as 2.4; in the data set with T-cell [3], 1.2; in data set [9], 1.1; with Mus musculus [11], 1.04; with Mus musculus [12], 17; in the data set listed under Mus musculus [14], 1.9. For the same compound, the “fold change (FC)” value with Mus musculus [15] was 21; in the data set listed under Mus musculus [16], 1.1; in the data set on T-cell [17] it was 1.2. For the same compound, the Activity came to 14.6% in [2]; 26.9% in data set [4]; 13.1% in data set [5]; 13.4% in data set [6]; 28.7% in data set [7]; 21.6% in data set [8]. In addition, the Activity in [10] is on record as 14%; in [18], 24.1%. Also, in the data set with BMDC [13], the result was inactive.
As for `CN(CCc1nc2ccccc2n1CC(=O)Nc1ccc2c(c1)CCC2)C(=O)c1ccccc1`, in the data set with THP-1, the Activity result was “Non-toxic”.
In the case of `CC(=O)N[C@@H]1[C@@H](O[C@H](C)C(=O)N[C@@H](C)C(=O)N[C@H](CCC(=O)O)C(N)=O)[C@H](O)[C@@H](CO)O[C@H]1O` [MURAMYLDIPEPTIDE], the Activity was 12.2% in data set [4], 10.8% in data set [5], 13.6% in [8] and 11.4% in data set [10]. The outcome in the data set with BMDC [19] was inactive.
Regarding `CCCCCCCCCCCCCC(=O)O[C@H](CCCCCCCCCCC)CC(=O)NCCO[C@@H]1O[C@H](CN)[C@@H](OP(=O)(O)O)[C@H](OC(=O)C[C@@H](CCCCCCCCCCC)OC(=O)CCCCCCCCCCCCC)[C@H]1NC(=O)C[C@@H](CCCCCCCCCCC)OC(=O)CCCCCCCCCCCCC`, the “fold change (FC)” value in data set [1] is reported as 1.3; in data set [20], 1.1. In addition, the Activity came out at 14.4% in data set [2]; 14.7% in data set [4]; 10.7% in data set [5]; 10.9% in data set [6]; 16.2% in [7]; 15.3% in data set [8]. The Activity in data set [10] came to 12.9%; in data set [18] it was 22.8%. The outcome in the data set on BMDC [13] was inactive.
In the case of `CCOC(=O)C1=CCCC[C@H]1S(=O)(=O)Nc1ccc(F)cc1Cl` [RESATORVID], in the data set with THP-1, the Activity result is given as “Non-toxic”.
